Experimental data as given in US6562837B1, “Use of tetrahydroisoquinoline compounds for the treatment of septicemia” (Korea Institute of Science & Technology, priority 1998, dated 2003).
Read-outs that look alike come from different tables or passages of the source.

What was measured:
human platelets = experiment: Inhibitory effect on platelet aggregation in human platelet rich plasma; type: cell-based
Experimental: For experiment, a blood platelet concentrate which was purchased from the Blood Bank of the Seoul National University Hospital, Korea, was measured for the number of platelets with the aid of a platelet analyzer (PLT-4, Texas Instruments), and diluted with phosphate buffered saline (hereinafter referred to as “PBS”) to give platelet rich plasma (hereinafter referred to as “PRP”) which ranged, in platelet number, from 300×10^6 to 400×10^6/ml. After being incubated at 37° C. for 3 min, PRP was added with ADP, collagen or epinephrine to induce platelet aggregation. The reduction in turbidity of PRP was observed and the degree of aggregation was monitored using a platelet aggregometer, such as that manufactured by Chrono-Log Corp. U.S.A., identified as “Model 500VS”.
The inhibitory activities of sample compounds against the platelet aggregation were evaluated as the % inhibition calculated according to the following equation: […]
A: aggregation degree of platelets obtained when adding a platelet aggregation inducer alone;
B: aggregation degree of platelets obtained when adding a combination of a platelet aggregation inducer and a sample.
Obtained using human platelets, the inhibitory effects of the compounds of Chemical Formulas 1 and 2 on platelet aggregation are given, along with the results from the control higenamine, in Table 1, below.

[1] = test system: NO synthesis in macrophages (RAW 264.7 cells); experiment: Suppression of LPS- and IFN-γ-induced NO synthesis in macrophage (nitrite, Griess reagent); type: cell-based; details: 18 hours, control 8, LPS + IFN-γ alone 57
Experimental: In a DMEM medium supplemented with thermally treated 10% fetal calf serum, penicillin (100 U/ml) and streptomycin ([…]), macrophages (RAW 264.7 cells) were cultured to be confluent in a CO2 incubator. After being transferred to a serum-free DMEM medium, the cells were cultured for additional 24 hours and then, further for 18 hours in the presence of LPS (100 ng/ml) and IFN-γ, and either of the compounds of Chemical Formulas 1 and 2 (0, 1, 10, and 100:μM). The amount of the NO synthesized was measured indirectly through the amount of nitrite, an oxidation product of NO. To this end, the nitrite was subjected to color reaction with the Griess reagent (0.1% naphthylethylenediamine dihydrochloride, 1% sulphanilamide, 5% phosphate solution) and its absorbance at 550 nm was measured by a spectrophotometer.

LPS-induced DIC and MOF = experiment: Indices for bacterial endotoxin (LPS)-induced DIC and MOF in rats; type: in vivo; details: 10 mg/kg and 50 mg/kg orally, vs control given LPS (20 mg/kg) only; for number of platelets in blood: FIG. 3; for prothrombin time (PT): FIG. 4; for activated partial thromboplastin time (aPTT): FIG. 5; for fibrinogen level in blood: FIG. 6; for FDP level in blood: FIG. 7; for S-GOT level in blood: FIG. 8; for S-GPT level in blood: FIG. 9; for BUN level in blood: FIG. 10
Experimental: Rats (Sprague-Dawley, 250±50 g) were anesthetized with ketamine (250 mg/kg) by injection (i.m.). 30 min later, LPS (20 mg/kg) was infused into the tail vein of the rats over a 3 hour period. Thereafter, blood was harvested from the artery and measured for platelet number, PT, aPTT, fibrinogen level, FDP level, and the levels of S-GOT, S-GPT and BUN. Test drugs were orally administered once a day for two days. One hour after the final administration of the compounds of interest, the rats were anesthetized.
As an anticoagulant, sodium citrate was used. The number of platelets in the blood was measured by use of a platelet counter. Anticoagulant-treated blood was centrifuged at 1,500×g for 10 min and the plasma was obtained for testing.
In order to obtain a prothrombin time (PT), 100 μl of the plasma was added with 50 μl of a thromboplastin reagent (Sigma, U.S.A.) and a clotting time was measured by use of a fibrometer (Becton Dickinson Co., Canada). Before mixing, the plasma and thromboplastin reagent were pre-incubated at 37° C. for 3 min and 5 min, respectively.
For measurement of the aPTT, 100 μl of the plasma was incubated at 37° C. for 3 min and added with 100 μl of an activated partial thromboplastin time reagent (Sigma U.S.A.) and 100 μl of 0.02 M CaCl2 and a clotting time was measured by use of a fibrometer. Before addition, the reagent was pre-incubated at 37° C. for 1 min while CaCl2 was pre-warmed at 37° C.
To determine the fibrinogen level, first, 20 μl of the plasma was mixed with 180 μl of a buffer and incubated at 37° C. for 2 min. To this solution was added 100 μl of a thrombin reagent (Sigma U.S.A.), followed by measuring a clotting time. Then, the fibrinogen level was determined from a calibration curve obtained with a fibrinogen reference.
The FDP level was determined by use of the Thrombo-Wellcotest kit (Murex Biotech Limit, British). To this end, first, each blood sample (non-citrated) was mixed well with a soybean trypsin inhibitor and Bothrops atrox venom and incubated at 37° C. for 30 min. After centrifugation at 1,500×g for 10 min twice, the supernatant serum was diluted with a glycine saline buffer. 50 μl of the diluted serum was mixed with a drop of a latex suspension on a test slide glass and spread uniformly. The slide was placed in a shaker for 2 min and observed for agglutination. The concentration of FDP was determined semi-quantitatively as follows: with 1:0 dilution (−):0 μg/ml, (+):1 μg/ml, (++):2 μg/ml; with 1:1 dilution, (+):3 μg/ml, (++) :4 μg/ml; with 1:2 dilution (+):5 μg/ml, (++):6 μg/ml, etc.
For the assay of S-GOT, S-GPT and BUN, diagnostic kits (Boehringer Mannheim; AST kit for S-GOT, ALT kit for S-GPT, and urea kit for BUN) were used, together with an automatic biochemical analyzer (Hitachi 747), with the help of Green Cross Reference Lab., Korea.
In detail, after oral administration of higenamine or the compounds of Chemical Formulas 1 and 2, LPS (20 mg/kg) was injected into rats over a 3 hour period to cause DIC and MOF. In order to examine the improvement in the indices for DIC and MOF, these test animals were compared with a control which was provided with LPS only.

[2] = Toxicity experiment, 50% lethal dose (LD50); details: in vivo, ip; intraperitoneally injected
[3] = Homo sapiens, read-out: IC50 (M), ADP-induced platelet aggregation
[4] = human PRP, inducer collagen 2-4 × 10^−6 g/ml, read-out: IC50 (M), collagen-induced platelet aggregation
[5] = human PRP, inducer epinephrine 2 × 10^−6 M, read-out: IC50 (M), epinephrine-induced platelet aggregation

Compound	IC50 (human platelets; [3]) [M]	IC50 (human platelets; [4]) [M]	IC50 (human platelets; [5]) [M]	Concentration of Nitrite ([1]; compound 1 μM + LPS + IFN-γ) [µM]	Concentration of Nitrite ([1]; compound 10 μM + LPS + IFN-γ) [µM]	Concentration of Nitrite ([1]; compound 100 μM + LPS + IFN-γ) [µM]	number of platelets in blood (LPS-induced DIC and MOF)	prothrombin time (PT) (LPS-induced DIC and MOF)	activated partial thromboplastin time (aPTT) (LPS-induced DIC and MOF)	fibrinogen level in blood (LPS-induced DIC and MOF)	FDP level in blood (LPS-induced DIC and MOF)	S-GOT level in blood (LPS-induced DIC and MOF)	S-GPT level in blood (LPS-induced DIC and MOF)	BUN level in blood (LPS-induced DIC and MOF)	LD50 [2] [mg/kg]	IC50 (human platelets; human PRP, inducer ADP 1 × 10^−3 M, read-out: IC50 (M), ADP-induced platelet aggregation) [M]
Oc1cc2c(cc1O)C(Cc1cccc3ccccc13)NCC2 (stereo not drawn) [Compound 1, 1-α-naphthylmethyl-6,7-dihydroxy-1,2,3,4-tetrahydroisoquinoline]	0.00073	9.2e-05	3.4e-06	30 ± 2.9	25 ± 3.4	9 ± 3.0	increased	shortened	shortened	increased	decreased	reduction	reduction	reduction	290	–
Oc1cc2c(cc1O)C(Cc1ccc3ccccc3c1)NCC2 (stereo not drawn) [Compound 2, 1-β-naphthylmethyl-6,7-dihydroxy-1,2,3,4-tetrahydroisoquinoline]	0.00086	9.6e-06	6e-06	34 ± 3.1	22 ± 2.8	11 ± 2.0	increased	shortened	shortened	increased	decreased	reduction	reduction	reduction	439	–
Oc1ccc(CC2NCCc3cc(O)c(O)cc32)cc1 (centres unmarked) [Higenamine, reference compound]	–	7e-05	1.9e-05	–	–	–	increased	shortened	shortened	increased	decreased	reduction	reduction	reduction	–	> 0.001
